Measurements as given in patent US20050070480A1, “Peptide arginals and methods for treating disseminated intravascular coagulation” (priority 2001, published 2005).
pIC50: −log10 of the molar value. Read-outs that look alike come from different tables or passages of the source.

Columns and labels:
LPS-treated rats = assay: Survival in a rat model for disseminated intravascular coagulation; assay type: in vivo; settings: for Effectiveness on survival compared with reference C (in words): LPS-treated rats; for Survival rate %: rats, 30 mg/kg LPS i.v.
urokinase (UK) = urokinase (UK) (Homo sapiens, UniProt P00749); assay: Fibrin plate assay, urokinase; assay type: biochemical; settings: for pIC50: reduction of lysed area to 50% of control, urokinase, read-out: LA50 UK
Source text: (§1) Inhibitory effects of the compounds of the invention on plasmin (PL) and plasmin generation by plasminogen (Plogen) activators, such as tissue plasminogen activator (tPA), and urokinase (UK) were examined by the fibrin plate assay. (See e.g., Bagdy, D., Barabás, E., Bajusz, S., and Széll, E., Thromb. Haemostas., 67:325-330 (1992); Barabás, E. Szell, E. and Bajusz, S, Blood Coagulation and Fibrinolysis, 4: 243 (1993)) The results are shown in Table 1, Column C. With a few exceptions the analogues are somewhat more inhibitory than Efegatran against the three fibrinolytic enzymes.

citrated human plasma [1] = assay: Activated partial thromboplastin time (APTT) plasma clotting assay; assay type: biochemical
Protocol: (§2) The inhibitory effect on plasma coagulation was evaluated in the thrombin time (TT), activated partial thromboplastin time (APTT) and prothrombin time (PT) assays by using citrated human plasma as substrate [Bagdy, D. et. al.: Thromb. Haemostas. 67, 325 (1992)]. The TT assay measures the inhibition of a single step, the coagulation of fibrinogen on the action of exogenous thrombin (final concentration 2.5 NIH U/ml). Clotting of plasma in the APTT and PT assays was induced by recalcification. Endogenous thrombin generated could theoretically be present at a final concentration as high as 50 NIH U/ml (APTT, PT). These assays detect the sum of inhibitory actions on fibrin formation and thrombin generation, which includes several proteolytic reactions mediated by either thrombin or other enzymes, e.g. fXa. Anticlotting activity is expressed in CT2, which is the concentration (nM) required to double the clotting time.

endotoxin-treated rats = assay: Rat model for disseminated intravascular coagulation (fibrin deposition, platelet count, FDP)
Protocol: The effects of compound 1 of the invention and two control anticoagulants, Efegatran (C) and heparin (H) on such phenomena were examined in endotoxin-treated rats [Ford, A. J. and Longridge, D. J.: Br. J. Pharmacol. 110, Suppl.
Male rats were treated with an i.v. bolus injection of 10 mg/kg endotoxin. It was followed by i.v. infusion of saline or the test compounds for four hours. Of compounds 1 and 3, 0.25 mg/kg was given as an initial bolus injection followed by an 0.25 mg/kg/h i.v. infusion for four hours. Heparin (H) was applied similarly, 50 IU/kg as an initial bolus injection followed by an 50 IU/kg/h i.v. infusion for four hours. Control group of animals was treated with 0.9% saline.
The deposition of ^125I-fibrin was investigated in selected organs (liver and kidney. ^125I-fibrinogen was injected 30 min. prior to endotoxin injection. The radioactivities in the tissue samples were measured in a gamma counter (Wallac Wizard 1470). Microthrombi formation in the organs was assessed using the ratio of organ ^125I activity to injected total ^125I activity, defined as the microthrombi index. Changes in this parameter are expressed in percent compared to saline group.
Number of platelet count was determined in an automatic appliance (Sysmex F-800) and related to control values.
Determination of FDP (fibrin degradation products) by Aggristin (Ristocetin) precipitation assay. […]

[2] = tested on: endotoxin-treated rabbits; assay type: in vivo, rabbit
clot-bound thrombin = clot-bound thrombin (Homo sapiens, UniProt P00734); assay: Enzyme inhibition in platelet-rich plasma clots, chromogenic substrate Tos-Gly-Pro-Arg-pNA; assay type: biochemical; settings: for pIC50: clot-bound thrombin, platelet-rich plasma clot
Protocol: (§3) Tos-Gly-Pro-Arg-pNA (S1) for thrombin and Moc-D-Chg-Gly-Arg-pNA (S2) for factor Xa, as published (Bajusz, S. et al.: PCT Pub. No. WO97/46576) briefly. The assays were carried out at room temperature in glass tubes and 96-well microtiter plates.
(§4) Solutions, (i) Buffer A: 0.1 M sodium phosphate/0.05 M NaCl (pH 8.5). (ii) Inhibitors: 0.1, 1.0 and 10 mg/ml solutions in buffer A containing 0.02% human albumin. (iii) Substrates: 1 mM of S1 and 2 mM of S2 in distilled water.
(§5) (b) Preparation of plasma clots. Platelet rich plasma samples (200 μl) placed in glass tubes were incubated at room temperature with 80 μl 40 mM CaCl2 for 60 min. The clots were washed with 2 ml aliquots of saline (0.9% NaCl) with gentle agitation to remove unbound enzymes In case of successful washing the optical density of the reaction mixture of wash and S1 is less than 5% of the control. The plasma clot thus obtained was kept under saline in the tube until use.
(§6) (c) Assessment of the enzyme inhibition in the clots. After removal of saline, the plasma clot was incubated at 37° C. with 400 μl inhibitor (or buffer A as negative control) for 5 min. and with 100 μl substrate S1 or S3 for 30 min., then the reaction was stopped with 100 μl 50% acetic acid. 150 μl portions of the reaction mixtures were placed in the wells of a microtiter plate and read at 405 nm (ELISA READER 800, Bio-Tek Instruments Inc. Winooski, Vt., USA). IC50 values were generated from the extinction data graphically.

[3] = molecular target: tissue plasminogen activator (tPA) (Homo sapiens, UniProt P00750); assay: Fibrin plate assay, tissue plasminogen activator; assay type: biochemical; settings: reduction of lysed area to 50% of control, read-out: LA50 tPA
Sequence of tissue plasminogen activator (tPA) (P00750 36-562, species assumed): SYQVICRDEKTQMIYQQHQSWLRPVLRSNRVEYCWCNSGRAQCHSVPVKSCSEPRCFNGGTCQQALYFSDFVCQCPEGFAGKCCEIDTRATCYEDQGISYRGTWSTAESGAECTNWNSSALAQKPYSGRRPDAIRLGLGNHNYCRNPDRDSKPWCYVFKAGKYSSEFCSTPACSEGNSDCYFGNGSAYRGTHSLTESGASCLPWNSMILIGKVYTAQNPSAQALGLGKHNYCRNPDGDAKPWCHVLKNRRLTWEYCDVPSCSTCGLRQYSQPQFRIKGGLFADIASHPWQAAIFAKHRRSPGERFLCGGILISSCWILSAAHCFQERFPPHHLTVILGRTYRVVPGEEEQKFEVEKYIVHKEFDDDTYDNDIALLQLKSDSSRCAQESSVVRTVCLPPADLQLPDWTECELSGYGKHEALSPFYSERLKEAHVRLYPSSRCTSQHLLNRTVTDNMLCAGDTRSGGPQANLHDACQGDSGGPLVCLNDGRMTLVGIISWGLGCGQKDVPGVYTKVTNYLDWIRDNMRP
Source text: as §1

clot-bound factor Xa = clot-bound factor Xa (Homo sapiens, UniProt P00742); assay: Enzyme inhibition in platelet-rich plasma clots, chromogenic substrate Moc-D-Chg-Gly-Arg-pNA; assay type: biochemical
Sequence of clot-bound factor Xa (P00742 235-488 limits assumed): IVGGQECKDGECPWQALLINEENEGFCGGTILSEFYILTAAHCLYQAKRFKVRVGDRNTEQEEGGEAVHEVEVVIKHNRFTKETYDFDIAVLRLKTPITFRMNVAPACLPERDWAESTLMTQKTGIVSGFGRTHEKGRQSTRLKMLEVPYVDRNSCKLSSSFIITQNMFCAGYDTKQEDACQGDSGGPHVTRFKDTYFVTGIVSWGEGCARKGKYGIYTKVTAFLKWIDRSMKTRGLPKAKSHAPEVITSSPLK
Sequence of clot-bound factor Xa (P00742 41-179 limits assumed): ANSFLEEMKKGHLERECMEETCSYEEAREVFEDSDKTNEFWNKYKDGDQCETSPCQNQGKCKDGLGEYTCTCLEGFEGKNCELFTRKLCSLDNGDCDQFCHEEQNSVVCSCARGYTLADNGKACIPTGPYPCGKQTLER
Protocol: as §3, §4, §5, §6

plasmin (PL) = plasmin (PL) (Homo sapiens, UniProt P00747); assay: Fibrin plate assay, plasmin; assay type: biochemical; settings: reduction of lysed area to 50% of control, read-out: LA50 PL
Sequence of plasmin (PL) (P00747 581-810 limits assumed, species assumed): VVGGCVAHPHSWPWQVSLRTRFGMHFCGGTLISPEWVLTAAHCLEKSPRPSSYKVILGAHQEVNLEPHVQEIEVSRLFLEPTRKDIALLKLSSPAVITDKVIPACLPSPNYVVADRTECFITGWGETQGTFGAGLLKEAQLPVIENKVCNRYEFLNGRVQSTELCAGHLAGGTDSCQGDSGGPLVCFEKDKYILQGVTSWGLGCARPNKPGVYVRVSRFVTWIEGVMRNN
Sequence of plasmin (PL) (P00747 97-580 limits assumed, species assumed): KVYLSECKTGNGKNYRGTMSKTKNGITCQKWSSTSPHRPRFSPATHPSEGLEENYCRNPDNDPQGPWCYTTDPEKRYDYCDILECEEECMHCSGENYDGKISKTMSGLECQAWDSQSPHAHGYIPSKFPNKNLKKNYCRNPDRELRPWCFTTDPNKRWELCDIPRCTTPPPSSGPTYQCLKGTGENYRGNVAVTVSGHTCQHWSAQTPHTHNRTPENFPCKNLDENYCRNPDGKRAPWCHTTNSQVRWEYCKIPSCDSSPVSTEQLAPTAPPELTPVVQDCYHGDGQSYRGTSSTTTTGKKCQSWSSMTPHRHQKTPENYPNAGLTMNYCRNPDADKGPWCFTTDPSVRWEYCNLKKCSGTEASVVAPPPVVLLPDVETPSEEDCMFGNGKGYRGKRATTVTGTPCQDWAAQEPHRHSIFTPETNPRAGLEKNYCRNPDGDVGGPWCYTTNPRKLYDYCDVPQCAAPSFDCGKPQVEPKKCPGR
Source text: as §1

[4] = tested on: citrated human plasma (exogenous thrombin); assay: Thrombin time (TT) plasma clotting assay; assay type: biochemical; settings: thrombin 2.5 NIH U/ml
Protocol: as §2

citrated human plasma [5] = assay: Prothrombin time (PT) plasma clotting assay; assay type: biochemical
Protocol: as §2

[6] = 0.75 mg/kg bolus + infusion, 0 hours
[7] = 0.75 mg/kg bolus + infusion, 4 hours
[8] = 0.75 mg/kg bolus + infusion, 5 hours
[9] = 0.75 mg/kg bolus + infusion, 6 hours
[10] = 0.75 mg/kg bolus + infusion, 7 hours
[11] = 0.75 mg/kg bolus + infusion, 8 hours
[12] = 1.5 mg/kg bolus + infusion, 0 hours
[13] = 1.5 mg/kg bolus + infusion, 4 hours
[14] = 1.5 mg/kg bolus + infusion, 5 hours
[15] = 1.5 mg/kg bolus + infusion, 6 hours
[16] = 1.5 mg/kg bolus + infusion, 7 hours
[17] = 1.5 mg/kg bolus + infusion, 8 hours
[18] = endotoxin-treated rabbits, 0.25 mg/kg/h infusion, 2 hrs
[19] = endotoxin-treated rabbits, 0.25 mg/kg/h infusion, 4 hrs
[20] = endotoxin-treated rabbits, 0.5 mg/kg/h infusion, 2 hrs
[21] = endotoxin-treated rabbits, 0.5 mg/kg/h infusion, 4 hrs

Row | Compound | Effectiveness on survival compared with reference C (in words) (LPS-treated rats) | Survival rate % (LPS-treated rats; [6]) | Survival rate % (LPS-treated rats; [7]) | Survival rate % (LPS-treated rats; [8]) | Survival rate % (LPS-treated rats; [9]) | Survival rate % (LPS-treated rats; [10]) | Survival rate % (LPS-treated rats; [11]) | Survival rate % (LPS-treated rats; [12]) | Survival rate % (LPS-treated rats; [13]) | Survival rate % (LPS-treated rats; [14]) | Survival rate % (LPS-treated rats; [15]) | Survival rate % (LPS-treated rats; [16]) | Survival rate % (LPS-treated rats; [17]) | pIC50 (urokinase (UK)) | CT2 APTT (concentration required for doubling the clotting time) (citrated human plasma [1]) | Inhibition of clot-bound thrombin compared with Efegatran (in words) (clot-bound thrombin) | pIC50 (clot-bound thrombin) | pIC50 [3] | pIC50 (clot-bound factor Xa) | pIC50 (plasmin (PL)) | also measured
1 | CCOC(=O)N[C@H](CC1CCCCCC1)C(=O)N1CCC[C@H]1C(=O)N[C@H](C=O)CCCNC(=N)N [Compound 1, ethoxycarbonyl-D-cycloheptylalanyl-L-prolyl-L-arginine aldehyde] | more effective than reference C | 100% | 100% | 100% | 100% | 90% | 70% | 100% | 100% | 100% | 100% | 100% | 100% | 4.85 | 331 nM | surpass Efegatran | 6.99 | 5.00 | 6.93 | 4.74 | Survival rate % (LPS-treated rats; 1.0 mg/kg bolus + infusion, 0 hours): 100%; Survival rate % (LPS-treated rats; 1.0 mg/kg bolus + infusion, 4 hours): 100%; Survival rate % (LPS-treated rats; 1.0 mg/kg bolus + infusion, 5 hours): 100%; Survival rate % (LPS-treated rats; 1.0 mg/kg bolus + infusion, 6 hours): 100%; Survival rate % (LPS-treated rats; 1.0 mg/kg bolus + infusion, 7 hours): 90%; Survival rate % (LPS-treated rats; 1.0 mg/kg bolus + infusion, 8 hours): 90%; DIC-inhibiting potential (in words) (endotoxin-treated rats): more pronounced than that of either heparin or Efegatran; Effect on lethality of endotoxin-treated rabbits (in words) ([2]; compared with endotoxin alone): significantly reduce the lethality; Lethality %, 2 hrs [2, 18]: 0%; Lethality no. died/treated animals, 2 hrs [2, 18]: 0/19; Lethality %, 4 hrs [2, 19]: 16%; Lethality no. died/treated animals, 4 hrs [2, 19]: 3/19; Lethality %, 2 hrs [2, 20]: 0%; Lethality no. died/treated animals, 2 hrs [2, 20]: 0/12; Lethality %, 4 hrs [2, 21]: 17%; Lethality no. died/treated animals, 4 hrs [2, 21]: 2/12; CT2 TT (concentration required for doubling the clotting time) [4]: 147 nM; CT2 PT (concentration required for doubling the clotting time) (citrated human plasma [5]): 1839 nM
2 | N=C(N)NCCC[C@@H](C=O)NC(=O)[C@@H]1CCCN1C(=O)[C@H](O)CC1CCCCCC1 [Compound 3, D-cycloheptyllactyl-L-prolyl-L-arginine aldehyde] | more effective than reference C | 100% | 100% | 100% | 100% | 100% | 92% | 100% | 100% | 100% | 100% | 100% | 92% | 4.07 | 281 nM | surpass Efegatran | 7.02 | 5.00 | 6.93 | 4.68 | Survival rate % (LPS-treated rats; 0.5 mg/kg bolus + infusion, 0 hours): 100%; Survival rate % (LPS-treated rats; 0.5 mg/kg bolus + infusion, 4 hours): 100%; Survival rate % (LPS-treated rats; 0.5 mg/kg bolus + infusion, 5 hours): 100%; Survival rate % (LPS-treated rats; 0.5 mg/kg bolus + infusion, 6 hours): 100%; Survival rate % (LPS-treated rats; 0.5 mg/kg bolus + infusion, 7 hours): 100%; Survival rate % (LPS-treated rats; 0.5 mg/kg bolus + infusion, 8 hours): 80%; Activity against UK compared with Efegatran (in words) (urokinase (UK)): almost equiactive with Efegatran; Effect on lethality of endotoxin-treated rabbits (in words) ([2]; rabbit, in vivo): significantly reduce the lethality; Lethality %, 2 hrs ([2]; rabbit, in vivo, 0.25 mg/kg): 0%; Lethality %, 4 hrs ([2]; rabbit, in vivo, 0.25 mg/kg): 18%; Lethality no. died/treated animals, 2 hrs ([2]; rabbit, in vivo, 0.25 mg/kg): 0/22; Lethality no. died/treated animals, 4 hrs ([2]; rabbit, in vivo, 0.25 mg/kg): 4/22; CT2 TT (concentration required for doubling the clotting time) [4]: 86 nM; CT2 PT (concentration required for doubling the clotting time) (citrated human plasma [5]): 1082 nM
